Laboratory results taken from PMC8289286, “In Silico, In Vitro, and In Vivo Evaluation of Precipitation Inhibitors in Supersaturated Lipid-Based Formulations of Venetoclax” (Molecular Pharmaceutics, 2021).
Converted amounts (≈) assume the structure as drawn. Where two headings read alike, the source gives them in different places.

How the values were obtained:
[1] = Biorelevant solubility in FaSSIF and FeSSIF; format: physicochemical
Experimental: FaSSIF and fed state simulated intestinal fluid (FeSSIF) was prepared according to the instructions by biorelevant.com. FeSSIF was used directly, whereas FaSSIF was left at room temperature for 2 h prior to usage. Excess venetoclax was added to 2 mL of biorelevant media and placed in a water bath shaker at 200 shakes/min (GLS400, Grant Instruments, UK) and 37 °C. Samples were taken after 3, 6, and 24 h and centrifuged at 21,380g and 37 °C for 15 min (Mikro 200 R, Andreas Hettich GmbH & Co. KG, Germany). The supernatant was transferred to a new sample tube and centrifuged again under identical conditions. Subsequently, the supernatant was diluted with the mobile phase before analysis by HPLC.
The samples were analyzed using an Agilent 1200 series HPLC system (Agilent Technology Inc., US) that comprised a binary pump, degasser, autosampler, and variable wavelength detector. Data were analyzed using the software EZChrom Elite version 3.2. Venetoclax was separated from the sample matrix with a Zorbax Eclipse Plus-C18 column (5 μm, 4.6 mm × 150 mm) including a Zorbax Eclipse Plus-C18 guard column (5 μm, 4.6 mm × 12.5 mm) at 40 °C. The mobile phase consisted of (a) acetonitrile with 0.5% trifluoroacetic acid (TFA) and (b) water with 0.5% TFA at a ratio of 53:47 (a/b v/v) and was used at a flow rate of 1 mL/min. The injection volume was 20 μL and the detection wavelength was set to 316 nm. The limit of detection was 20 ng/mL and the limit of quantification (LOQ) was 65 ng/mL determined using the standard error of the y-intercept according to the International Council for Harmonization (ICH) Q2 guidelines.[34]

[2] = cited from earlier work
[3] = set-up: method as in PMID 28993217; details: cited from earlier work
[4] = Venetoclax solubility in FaSSIF and FaSSIF with dissolved PI; format: physicochemical; details: FaSSIF without PI, reference of the PI test
Experimental: Additionally, the solubility of venetoclax was determined in FaSSIF with dissolved PI. […] 250 μL of samples were taken at 3, 6, and 24 h and filtered through a 0.2 μm syringe filter (Whatman Spartan 13/0.2), diluted with acetonitrile (containing 0.5% (v/v) TFA), and analyzed by HPLC as described above.

[5] = cited from earlier work; remark: listed apart in the source

Structure (SMILES): CC1(C)CCC(CN2CCN(c3ccc(C(=O)NS(=O)(=O)c4ccc(NCC5CCOCC5)c([N+](=O)[O-])c4)c(Oc4cnc5[nH]ccc5c4)c3)CC2)=C(c2ccc(Cl)cc2)C1 [venetoclax]
- share of a 100 mg dose dissolved in 250 mL gastrointestinal fluid at FaSSIF solubility ([1]; FaSSIF, 100 mg dose in 250 mL): 1.7%
- solubility ([1]; FaSSIF, 37 °C, n = 3): 6.8 ± 1.8 µg/mL (≈ 7.83 µM)
- solubility increase in the fed state (FeSSIF) over FaSSIF ([1]; FeSSIF vs FaSSIF, 37 °C): 3.9 fold
- share of a 100 mg dose dissolved at FeSSIF solubility ([1]; FeSSIF, 100 mg dose): 6.7%
- previously reported venetoclax bioavailability in fasted pigs [2]: 17.3 ± 5.5%
- amorphous solubility in FaSSIF ([3]; pH 5.3): 20.7 ± 0.5 µg/mL
- amorphous solubility in FaSSIF ([3]; pH 6.9): 33.7 ± 13.5 µg/mL
- amorphous solubility in FeSSIF ([3]; FeSSIF, pH 5.3): 26.4 ± 0.2 µg/mL
- amorphous solubility in FeSSIF ([3]; FeSSIF, pH 6.9): 54.6 ± 2.0 µg/mL
- reported amorphous solubility in FeSSIF ([3]; FeSSIF): 26.4 to 54.6 µg/mL
- solubility [4]: 5.2 ± 0.4 µg/mL (≈ 5.99 µM)
- BCS classification ([5]; based on low aqueous solubility and permeability): BCS class IV
- log P [5]: 5.5
